The nature of data set [1]: Pharmacokinetic (PK) test in mice. It counts as in vivo. The settings on record: male ICR mice, plasma; for bioavailability / AUC(0-t) / MRT last / half-life / AUC(0-inf) / Cmax: mouse; for bioavailability: PO 20 mg/kg vs IV 3 mg/kg; for AUC(0-inf): read-out: AUCINF_obs; for Cmax: read-out: C0/Cmax. The method, then:
To male ICR mice, the solution of Compound C2 (1 mg/mL) of the present invention and the solution of control Compound A (1 mg/mL) were administered intravenously (IV) and intragastrically (PO), in both of which the vehicle system is DMSO, solutol and deionized water (1:2:17, v:v:v). For Compound C2 and Compound A, the IV and PO dosages were 3 mg/kg and 20 mg/kg, respectively. For IV administration, blood was collected from the ophthalmic venous plexus of the mice at (0) horn before the administration and at 0.083, 0.25, 0.5, 1, 2, 4, 6, 8, and 24 horns after the administration, while for PO administration, blood was collected from ophthalmic venous plexus of the mice at (0) hour before the administration and at 0.25, 0.5, 1, 2, 4, 6, 8, and 24 horns after the administration. For Compound C2, a 0.05 mL blood sample was taken at each time point, while for Compound A, a 0.03 mL blood sample was taken at each time point. The collected blood sample was placed in a clean sample tube containing EDTA-K2 (4%), and centrifuged at 5000 rpm at 4° C. for 5 minutes. The resulting plasma was transferred to another clean sample tube, and stored at −20° C. LC-MS/MS analysis was performed on the plasma samples. The pharmacokinetic parameters were calculated using WinNonlin 6.3 software.

The next data set deals with AT2 Receptor (AT2R) (Homo sapiens (Human), UniProt P50052). Nature of the data set: Inhibitory activity on AT2 receptor (Tag-lite HTRF, Tb-labeled AT2R cells, angiotensin receptor red agonist). It is filed as binding. The following applies: 1 h at room temperature.
AT2 Receptor (AT2R), sequence (P50052 whole entry): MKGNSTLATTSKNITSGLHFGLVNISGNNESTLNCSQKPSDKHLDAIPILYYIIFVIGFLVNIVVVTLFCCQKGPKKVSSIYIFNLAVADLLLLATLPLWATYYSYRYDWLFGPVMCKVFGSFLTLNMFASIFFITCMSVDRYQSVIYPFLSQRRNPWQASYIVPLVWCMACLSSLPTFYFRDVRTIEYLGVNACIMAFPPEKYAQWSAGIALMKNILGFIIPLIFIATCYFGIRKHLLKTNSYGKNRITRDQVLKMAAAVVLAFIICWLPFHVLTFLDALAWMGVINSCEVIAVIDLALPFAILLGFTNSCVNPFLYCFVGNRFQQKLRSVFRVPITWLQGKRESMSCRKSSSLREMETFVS
For the next data set, the target named is AT1 Receptor (AT1R) (Homo sapiens (Human), UniProt P30556). Nature of the data set: Inhibitory activity on AT1 receptor (Tag-lite HTRF, Tb-labeled AT1R cells, angiotensin receptor red agonist). The settings on record: 1 h at room temperature. It counts as binding. On the technique in general: In TR-FRET formats the signal depends on donor and acceptor labels being close together.
AT1 Receptor (AT1R), sequence (P30556 whole entry): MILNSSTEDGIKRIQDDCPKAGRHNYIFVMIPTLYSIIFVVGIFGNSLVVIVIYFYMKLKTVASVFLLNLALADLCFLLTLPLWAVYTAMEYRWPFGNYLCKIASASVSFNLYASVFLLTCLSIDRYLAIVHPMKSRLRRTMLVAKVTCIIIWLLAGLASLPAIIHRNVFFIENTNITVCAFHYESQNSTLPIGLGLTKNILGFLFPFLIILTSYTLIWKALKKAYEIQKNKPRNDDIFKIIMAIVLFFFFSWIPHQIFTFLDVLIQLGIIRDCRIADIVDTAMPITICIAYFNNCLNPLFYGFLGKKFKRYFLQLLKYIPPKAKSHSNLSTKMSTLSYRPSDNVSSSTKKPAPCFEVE

Like-named read-outs stand apart in the source and are kept apart here.

For `O=C(O)[C@@H]1CN(C(=O)N(c2ccccc2)c2ccccc2)CCN1C(=O)N(c1ccccc1)c1ccccc1` [A, reference compound], in data set [1] (IV, 3 mg/kg), the CL_obs amounted to 41.8933 mL/min/kg; the AUC(0-t) (as a rule, exposure summed from dosing to a finite time, without extrapolation to infinity) is 1190 ng·h/mL; the MRT last (usually the average time that molecules of a dose stay in the body) worked out at 0.29 h; the half-life (usually the time needed for the level to fall by half in the phase considered) was 0.5 h. In data set [1] (IV, 3 mg/kg), the AUC(0-inf) was 1200 ng·h/mL and the Cmax was determined as 7170 ng/mL. In data set [1], the bioavailability (in general, dose-corrected exposure relative to a reference, in per cent) came out at 6.26%. Besides, in data set [1] (PO, 20 mg/kg), the AUC(0-t) came to 495 ng·h/mL, the MRT last was 1.06 h, the half-life was 0.872 h and the AUC(0-inf) worked out at 499 ng·h/mL. In data set [1] (PO, 20 mg/kg), the Cmax was 366 ng/mL.

As to `O=C(O)[C@@H]1CN(C(=O)N2c3ccccc3C=Cc3ccccc32)CCN1C(=O)N(c1ccccc1)c1ccccc1` [Compound C1, (S)-4-(5H-dibenzo[b,f]azepine-5-carbonyl)-1-(diphenylcarbamoyl) piperazine-2-carboxylic acid], the figures for the IC50 on AT2 Receptor (AT2R) and on AT1 Receptor (AT1R) were 18.8 nM and over 10000 nM, respectively.

Consider `O=C(O)[C@@H]1CN(C(=O)N(c2ccccc2)c2ccccc2)CCN1C(=O)N1c2ccccc2C=Cc2ccccc21` [Compound C2, (S)-1-(5H-dibenzo[b,f]azepine-5-carbonyl)-4-(diphenylcarbamoyl) piperazine-2-carboxylic acid], for which the IC50 (as a rule, the point on the concentration scale where inhibition reaches its midpoint) on AT2 Receptor (AT2R) turned out to be 20.3 nM. Also, the IC50 on AT1 Receptor (AT1R) is over 10000 nM. For the same molecule, in data set [1] (IV, 3 mg/kg), the CL_obs turned out to be 1.010 mL/min/kg, the AUC(0-t) was 49000 ng·h/mL, the MRT last was 1.9 h and the half-life was 4.51 h. Also, in data set [1] (IV, 3 mg/kg), the AUC(0-inf) is 49500 ng·h/mL and the Cmax worked out at 43400 ng/mL. For the same molecule, the bioavailability in data set [1] amounted to 45.7%. For the same molecule, in data set [1] (PO, 20 mg/kg), the AUC(0-t) is 151000 ng·h/mL, the MRT last was found to be 2.34 h, the half-life was 3.05 h and the AUC(0-inf) is 151000 ng·h/mL. In addition, the Cmax in data set [1] (PO, 20 mg/kg) amounted to 62000 ng/mL.

On to `O=C(O)[C@@H]1CN(C(=O)N2c3ccccc3C=Cc3ccccc32)CCN1C(=O)N1c2ccccc2C=Cc2ccccc21` [Compound C3, (S)-1,4-bis(5H-dibenzo[b,f]azepine-5-carbonyl) piperazine-2-carboxylic acid], for which the IC50 at AT2 Receptor (AT2R) is 32.5 nM; at AT1 Receptor (AT1R), over 10000 nM.

`O=C(O)[C@@H]1CN(C(=O)C(c2ccccc2)c2ccccc2)CCN1C(=O)N1c2ccccc2C=Cc2ccccc21` [Compound C4, (S)-1-(5H-dibenzo [b,f]azepine-5-carbonyl)-4-(2,2-diphenylacetyl) piperazine-2-carboxylic acid]: the IC50 at AT2 Receptor (AT2R) was 45.1 nM; at AT1 Receptor (AT1R), over 10000 nM.

As for `O=C(O)[C@@H]1CN(C(=O)N2c3ccccc3C=Cc3ccccc32)CCN1C(=O)C(c1ccccc1)c1ccccc1` [Compound C5, (S)-4-(5H-dibenzo [b,f]azepine-5-carbonyl)-1-(2,2-diphenylacetyl) piperazine-2-carboxylic acid], the IC50 on AT2 Receptor (AT2R) is 6.47 nM; on AT1 Receptor (AT1R) it was over 10000 nM.

For the molecule `O=C(O)[C@@H]1CN(C(=O)N2c3ccccc3Sc3ccccc32)CCN1C(=O)C(c1ccccc1)c1ccccc1` [Compound C12, (S)-1-(2,2-diphenylacetyl)-4-(10H-phenothiazine-10-carbonyl) piperazine-2-carboxylic acid], the IC50 on AT2 Receptor (AT2R) was 43.7 nM; on AT1 Receptor (AT1R) it was over 10000 nM.

Regarding `O=C(O)[C@@H]1CN(C(=O)N(c2ccccc2)c2ccccc2)CCN1C(=O)N1c2ccccc2Sc2ccccc21` [Compound C20, (S)-4-(diphenylcarbamoyl)-1-(10H-phenothiazine-10-carbonyl)piperazine-2-carboxylic acid], the IC50 at AT2 Receptor (AT2R) was 36.7 nM; on AT1 Receptor (AT1R) it was over 10000 nM.

Take `CN(C)S(=O)(=O)NC(=O)[C@@H]1CN(C(=O)N(c2ccccc2)c2ccccc2)CCN1C(=O)N1c2ccccc2C=Cc2ccccc21` [Compound C33, (S)-4-(5H-dibenzo[b,f]azepine-5-carbonyl)-N^3—(N,N-dimethylsulphamoyl)-N^1,N^1-phenylpiperazine-1,3-dicarboxamide]: the half-inhibitory concentration (IC50) at AT2 Receptor (AT2R) was 35.9 nM; at AT1 Receptor (AT1R), over 10000 nM.

As for `O=C(O)[C@@H]1CN(C(=O)N2c3ccccc3Sc3ccccc32)CCN1C(=O)N(c1ccccc1)c1ccccc1` [Compound C44, (S)-1-(diphenylcarbamoyl)-4-(10H-phenothiazine-10-carbonyl)piperazine-2-carboxylic acid], the IC50 at AT2 Receptor (AT2R) is 62.6 nM; at AT1 Receptor (AT1R), over 10000 nM.

As to `O=C(O)[C@H]1CN(C(=O)N2c3ccccc3C=Cc3ccccc32)CCN1C(=O)N(c1ccccc1)c1ccccc1` [Compound C45, (R)-4-(5H-dibenzo[b,f]azepine-5-carbonyl)-1-(diphenylcarbamoyl) piperazine-2-carboxylic acid], the IC50 on AT2 Receptor (AT2R) is 55.5 nM; at AT1 Receptor (AT1R), over 10000 nM.

For `O=C(O)[C@H]1CN(C(=O)N(c2ccccc2)c2ccccc2)CCN1C(=O)N1c2ccccc2C=Cc2ccccc21` [Compound C46, (R)-1-(5H-dibenzo [b,f]azepine-5-carbonyl)-4-(diphenylcarbamoyl) piperazine-2-carboxylic acid], the IC50 at AT2 Receptor (AT2R) is 54.5 nM; on AT1 Receptor (AT1R) it was over 10000 nM.

Molecule `COC1=Cc2ccccc2N(C(=O)N2CCN(C(=O)N(c3ccccc3)c3ccccc3)C[C@H]2C(=O)O)c2ccccc21` [Compound C50, (S)-4-(diphenylcarbamoyl)-1-(10-methoxy-5H-dibenzo[b,f]azepine-5-carbonyl) piperazine-2-carboxylic acid] returned an IC50 at AT1 Receptor (AT1R) of over 10000 nM.

On to `O=C1Cc2ccccc2N(C(=O)N2CCN(C(=O)N(c3ccccc3)c3ccccc3)C[C@H]2C(=O)O)c2ccccc21` [Compound C77, (S)-4-(diphenylcarbamoyl)-1-(10-oxo-10,11-dihydro-5H-dibenzo[b,f]azepine-5-carbonyl)piperazine-2-carboxylic acid], for which the IC50 on AT2 Receptor (AT2R) is 32.3 nM; on AT1 Receptor (AT1R) it was over 10000 nM.

On to `O=C(O)[C@@H]1CN(C(=O)N(c2ccccc2)c2ccccc2)CCN1C(=O)C1(c2ccccc2)CCCCC1` [Compound C80, (S)-4-(diphenylcarbamoyl)-1-(1-phenylcyclohexanecarbonyl) piperazine-2-carboxylic acid], for which the IC50 at AT2 Receptor (AT2R) was 12.7 nM; on AT1 Receptor (AT1R), over 10000 nM.

On to `O=C(O)[C@@H]1CN(C(=O)C(c2ccccc2)c2ccccc2)CCN1C(=O)C1(c2ccccc2)CCCCC1` [Compound C81, (S)-4-(2,2-diphenylacetyl)-1-(1-phenylcyclohexanecarbonyl) piperazine-2-carboxylic acid], for which the IC50 at AT1 Receptor (AT1R) was over 10000 nM.

With `COc1ccccc1N(C(=O)N1CCN(C(=O)N2c3ccccc3CC(=O)c3ccccc32)[C@H](C(=O)O)C1)c1ccccc1OC` [Compound C94, (S)-4-(bis(2-methoxylphenyl)carbamoyl)-1-(10-oxo-10,11-dihydro-5H-dibenzo [b,f]azepine-5-carbonyl)piperazine-2-carboxylic acid], at AT1 Receptor (AT1R), the IC50 is over 10000 nM.

Consider `Cc1ccc(CN(C(=O)N2CCN(C(=O)N(c3ccccc3)c3ccccc3)[C@H](C(=O)O)C2)C2CC2)s1` [Compound C145, (S)-4-(cyclopropyl((5-methylthiophen-2-yl)methyl)carbamoyl)-1-(diphenylcarbamoyl) piperazine-2-carboxylic acid], for which the IC50 on AT2 Receptor (AT2R) amounted to 3.61 nM.

For `Cc1cc(CN(C(=O)N2CCN(C(=O)N(c3ccccc3)c3ccccc3)[C@H](C(=O)O)C2)C2CC2)cs1` [Compound C146, (S)-4-(cyclopropyl((5-methylthiophen-3-yl)methyl)carbamoyl)-1-(diphenylcarbamoyl) piperazine-2-carboxylic acid], the IC50 at AT2 Receptor (AT2R) was determined as 14.2 nM.

Consider `CS(=O)(=O)NC(=O)[C@@H]1CN(C(=O)N2c3ccccc3CC(=O)c3ccccc32)CCN1C(=O)N(c1ccccc1)c1ccccc1` [Compound C149], for which the IC50 on AT2 Receptor (AT2R) is 290 nM.

`CCN(Cc1csc(Cl)c1)C(=O)N1CCN(C(=O)N(c2ccccc2)c2ccccc2)[C@H](C(=O)O)C1` [Compound C150, (S)-4-(((5-chlorothiophene-3-yl)methyl)(ethyl)carbamoyl)-1-(diphenylcarbamoyl) piperazine-2-carboxylic acid] came in with an IC50 on AT2 Receptor (AT2R) of 26.1 nM.

`Cc1ccc(CN(C(=O)N2CCN(C(=O)C(c3ccccc3)c3ccccc3)[C@H](C(=O)O)C2)C2CC2)s1` [Compound C153, (S)-4-(cyclopropyl((5-methylthiophen-2-yl)methyl)carbamoyl)-1-(2,2-diphenylacetyl)piperazine-2-carboxylic acid] showed an IC50 at AT2 Receptor (AT2R) of 5.47 nM.
